Measurements published in ChEMBL document CHEMBL1134204, “Carbonic anhydrase inhibitors: synthesis of sulfonamides incorporating dtpa tails and of their zinc complexes with powerful topical antiglaucoma properties” (Bioorg Med Chem Lett, 2001).

Assays:
Oryctolagus cuniculus [1] = test: In vivo activity in normotensive rabbits (23.5+/-2.6 mmHg) for the intraocular pressure (IOP) lowering 30 min after topical administration with one drop of Carbonic anhydrase inhibitor at a pH 7.4; format: functional, Eye
Oryctolagus cuniculus [2] = test: In vivo activity in normotensive rabbits (23.5+/-2.6 mmHg) for the intraocular pressure (IOP) lowering 60 min after topical administration with one drop of Carbonic anhydrase inhibitor at a pH 7.4; format: functional, Eye
Oryctolagus cuniculus [3] = test: In vivo activity in normotensive rabbits (23.5+/-2.6 mmHg) for the intraocular pressure (IOP) lowering 90 min after topical administration with one drop of Carbonic anhydrase inhibitor at a pH 7.4; format: functional, Eye
Carbonic anhydrase 1 = Carbonic anhydrase 1 (Homo sapiens, UniProt P00915)
Carbonic anhydrase 4 = Carbonic anhydrase 4 (Homo sapiens, UniProt P22748)
[4] = not given; remark: listed apart in the source

Carbonic anhydrase 4, sequence (P22748 whole entry): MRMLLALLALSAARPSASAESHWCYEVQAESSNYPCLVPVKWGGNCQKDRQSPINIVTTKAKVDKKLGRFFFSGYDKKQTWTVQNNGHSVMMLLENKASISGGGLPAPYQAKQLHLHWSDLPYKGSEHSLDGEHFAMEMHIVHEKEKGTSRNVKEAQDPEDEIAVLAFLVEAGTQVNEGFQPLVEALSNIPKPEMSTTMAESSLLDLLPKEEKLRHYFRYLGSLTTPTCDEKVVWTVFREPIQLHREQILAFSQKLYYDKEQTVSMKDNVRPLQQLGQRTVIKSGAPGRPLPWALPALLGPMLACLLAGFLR
Carbonic anhydrase 1, sequence (P00915 whole entry): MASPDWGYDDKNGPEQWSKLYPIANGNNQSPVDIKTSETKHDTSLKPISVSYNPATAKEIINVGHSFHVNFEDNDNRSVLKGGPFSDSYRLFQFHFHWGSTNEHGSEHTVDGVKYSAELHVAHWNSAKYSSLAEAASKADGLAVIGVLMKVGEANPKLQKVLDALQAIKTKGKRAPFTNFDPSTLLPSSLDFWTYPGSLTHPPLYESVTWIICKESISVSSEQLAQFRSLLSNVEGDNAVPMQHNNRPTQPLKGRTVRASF

In the case of `NS(=O)(=O)c1nnc(NC(=O)CN(CCN(CCN(CC(=O)O)CC(=O)O)CC(=O)O)CC(=O)O)s1`, the “Change in IOP” value (Oryctolagus cuniculus [1]) is reported as 3.1 mmHg, the “Change in IOP” value (Oryctolagus cuniculus [2]) is reported as 6.8 mmHg and the “Change in IOP” value (Oryctolagus cuniculus [3]) is reported as 4.5 mmHg. It also gave a Ki (Carbonic anhydrase 1) of 55 nM, a Ki (Carbonic anhydrase 4) of 28 nM and a Kin of 8.1 h⁻¹. It also gave a Kin [4] of 4.3 h⁻¹.
